Laboratory results reported in US20250368666A1, “INDAZOLE COMPOUNDS” (TYRA BIOSCIENCES, INC., priority 2022, published 2025).

Assays:
[1] = system: KATO-III cell line (FGFR2 amplification); assay: Cancer cell line cell viability assay (Cell Titer-Glo), 72 hr; type: cell-based; conditions: Homo sapiens, KATO III
How it was run: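 Following overnight attachment, each line receives compound in triplicate across nine 4-fold dilutions starting at 3 μM, with DMSO backfill for equal solvent. Luminescence after Cell Titer-Glo 2.0 addition gives percent viability versus DMSO control, fitted by 4-parameter logistic for IC50.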

[2] = system: KG-1 cell line (FGFR 1-fusion); assay: as above; type: cell-based; conditions: Homo sapiens, KG-1, KG-1 cell line (FGFR1-fusion)
How it was run: (§1)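 ATP-based luminescence (Cell Titer-Glo 2.0) measured viability after 72 h (KG-1, RT112/84) or 120 h (MDA-MB-453, HuH7) compound exposure. Dosing was nine 4-fold steps starting at 3 μM, in triplicate, on overnight-plated cells. IC50 came from a variable-slope 4-parameter fit of % DMSO control.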

[3] = system: RT112/84 cell line (FGFR3-fusion); assay: as above; type: cell-based; conditions: Homo sapiens, RT112/84, RT112/84 cell line (FGFR3-fusion)
How it was run: as §1

[4] = system: MDA-MB-453 cell line (FGFR4-Y367C); assay: Cancer cell line cell viability assay (Cell Titer-Glo), 120 hr; type: cell-based; conditions: Homo sapiens
How it was run: as §1

[5] = system: HuH7 cell line (FGF19 amplification); assay: as above; type: cell-based; conditions: Homo sapiens, Huh-7
How it was run: as §1

[6] = target: T1, FGFR1 (Homo sapiens, UniProt P11362); assay: Kinase binding assay (kinase-tagged T7 phage, affinity beads, qPCR), Kd; conditions: read-out: FGFR1 (Kd nM)
T1 construct: made in house; host or cells: E. coli (BL21-derived), T7 phage
T1 sequence (P11362 22-822): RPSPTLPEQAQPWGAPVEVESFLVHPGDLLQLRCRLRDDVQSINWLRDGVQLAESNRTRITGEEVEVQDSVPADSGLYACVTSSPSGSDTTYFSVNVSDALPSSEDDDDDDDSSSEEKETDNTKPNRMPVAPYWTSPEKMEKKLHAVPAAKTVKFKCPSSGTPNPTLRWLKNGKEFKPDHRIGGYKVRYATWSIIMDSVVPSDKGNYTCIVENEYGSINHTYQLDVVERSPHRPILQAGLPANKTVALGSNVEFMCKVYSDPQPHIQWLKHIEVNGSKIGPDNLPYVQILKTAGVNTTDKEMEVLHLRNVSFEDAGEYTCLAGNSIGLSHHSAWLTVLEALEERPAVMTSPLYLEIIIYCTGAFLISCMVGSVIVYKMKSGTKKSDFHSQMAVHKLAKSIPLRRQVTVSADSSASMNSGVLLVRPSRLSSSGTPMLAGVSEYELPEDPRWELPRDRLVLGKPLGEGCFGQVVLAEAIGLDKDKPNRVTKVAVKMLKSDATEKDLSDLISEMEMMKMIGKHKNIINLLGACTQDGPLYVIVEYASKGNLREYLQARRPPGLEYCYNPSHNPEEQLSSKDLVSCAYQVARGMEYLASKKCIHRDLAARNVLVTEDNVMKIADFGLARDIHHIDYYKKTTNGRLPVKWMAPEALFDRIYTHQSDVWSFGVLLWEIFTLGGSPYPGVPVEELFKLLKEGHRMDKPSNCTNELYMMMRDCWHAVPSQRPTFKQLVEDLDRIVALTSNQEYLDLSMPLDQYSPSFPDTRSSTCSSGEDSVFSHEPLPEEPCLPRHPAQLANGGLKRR
How it was run: (§2)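 Readout was qPCR of kinase eluted from ligand-coated affinity beads after competition with test compound. Kinases were expressed as T7 phage fusions in E. coli. Binding constants were derived by non-linear least-squares Hill fitting, Hill slope −1.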

[7] = target: T2, FGFR3 (V555M) (Homo sapiens, UniProt P22607, V555M); assay: as above; conditions: V555M mutant; read-out: FGFR3 (V555M) (Kd nM)
T2 construct: made in house; host or cells: E. coli (BL21-derived), T7 phage
T2 sequence (P22607 23-806 V555M): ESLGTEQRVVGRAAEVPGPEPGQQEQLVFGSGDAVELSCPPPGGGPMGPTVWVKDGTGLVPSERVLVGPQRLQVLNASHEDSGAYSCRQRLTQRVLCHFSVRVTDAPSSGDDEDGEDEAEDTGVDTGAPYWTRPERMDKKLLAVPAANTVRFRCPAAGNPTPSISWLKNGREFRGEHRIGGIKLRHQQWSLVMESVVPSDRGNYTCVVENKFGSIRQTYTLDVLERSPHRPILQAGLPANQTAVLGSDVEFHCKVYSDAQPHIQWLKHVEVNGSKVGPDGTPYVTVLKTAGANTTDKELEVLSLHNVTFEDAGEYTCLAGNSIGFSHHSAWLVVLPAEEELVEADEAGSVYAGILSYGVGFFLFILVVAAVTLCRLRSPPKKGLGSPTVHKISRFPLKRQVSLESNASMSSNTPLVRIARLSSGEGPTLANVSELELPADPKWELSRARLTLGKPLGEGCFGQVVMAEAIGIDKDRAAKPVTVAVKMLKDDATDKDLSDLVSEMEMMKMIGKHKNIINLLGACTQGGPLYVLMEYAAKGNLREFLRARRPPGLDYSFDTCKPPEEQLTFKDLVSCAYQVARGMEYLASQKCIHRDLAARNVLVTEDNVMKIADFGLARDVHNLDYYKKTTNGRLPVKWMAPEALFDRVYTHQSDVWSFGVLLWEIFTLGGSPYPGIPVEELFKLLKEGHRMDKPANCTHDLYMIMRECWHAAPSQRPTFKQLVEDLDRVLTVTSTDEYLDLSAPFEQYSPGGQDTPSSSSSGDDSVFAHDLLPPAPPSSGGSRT
How it was run: as §2

[8] = target: T3, FGFR4 (Homo sapiens, UniProt P22455); assay: as above; conditions: read-out: FGFR4 (Kd nM)
T3 construct: made in house; host or cells: E. coli (BL21-derived), T7 phage
T3 sequence (P22455 22-802): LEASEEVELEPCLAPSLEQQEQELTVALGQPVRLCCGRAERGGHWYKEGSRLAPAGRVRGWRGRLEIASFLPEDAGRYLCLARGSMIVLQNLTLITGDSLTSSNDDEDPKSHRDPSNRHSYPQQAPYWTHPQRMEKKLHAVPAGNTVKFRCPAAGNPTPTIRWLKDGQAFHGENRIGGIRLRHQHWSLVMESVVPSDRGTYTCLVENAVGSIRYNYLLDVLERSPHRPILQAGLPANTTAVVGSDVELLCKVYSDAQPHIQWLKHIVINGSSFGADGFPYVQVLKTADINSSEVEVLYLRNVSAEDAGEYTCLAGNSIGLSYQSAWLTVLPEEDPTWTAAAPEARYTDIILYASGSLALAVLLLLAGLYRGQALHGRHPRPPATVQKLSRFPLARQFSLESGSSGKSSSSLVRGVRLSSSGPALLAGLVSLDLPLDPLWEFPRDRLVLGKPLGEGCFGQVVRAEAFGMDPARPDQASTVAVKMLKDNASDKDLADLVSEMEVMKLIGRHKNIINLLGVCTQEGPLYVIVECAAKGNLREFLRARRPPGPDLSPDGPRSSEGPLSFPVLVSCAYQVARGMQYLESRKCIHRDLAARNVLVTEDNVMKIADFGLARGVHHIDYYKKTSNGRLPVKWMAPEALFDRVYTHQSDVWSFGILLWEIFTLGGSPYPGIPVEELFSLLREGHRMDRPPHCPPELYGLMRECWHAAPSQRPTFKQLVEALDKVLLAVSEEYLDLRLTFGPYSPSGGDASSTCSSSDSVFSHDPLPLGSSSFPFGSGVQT
How it was run: as §2

[9] = target: T4, FGFR2 (Homo sapiens, UniProt P21802); assay: as above; conditions: read-out: FGFR2 (Kd nM)
T4 construct: made in house; host or cells: E. coli (BL21-derived), T7 phage
T4 sequence (P21802 22-821): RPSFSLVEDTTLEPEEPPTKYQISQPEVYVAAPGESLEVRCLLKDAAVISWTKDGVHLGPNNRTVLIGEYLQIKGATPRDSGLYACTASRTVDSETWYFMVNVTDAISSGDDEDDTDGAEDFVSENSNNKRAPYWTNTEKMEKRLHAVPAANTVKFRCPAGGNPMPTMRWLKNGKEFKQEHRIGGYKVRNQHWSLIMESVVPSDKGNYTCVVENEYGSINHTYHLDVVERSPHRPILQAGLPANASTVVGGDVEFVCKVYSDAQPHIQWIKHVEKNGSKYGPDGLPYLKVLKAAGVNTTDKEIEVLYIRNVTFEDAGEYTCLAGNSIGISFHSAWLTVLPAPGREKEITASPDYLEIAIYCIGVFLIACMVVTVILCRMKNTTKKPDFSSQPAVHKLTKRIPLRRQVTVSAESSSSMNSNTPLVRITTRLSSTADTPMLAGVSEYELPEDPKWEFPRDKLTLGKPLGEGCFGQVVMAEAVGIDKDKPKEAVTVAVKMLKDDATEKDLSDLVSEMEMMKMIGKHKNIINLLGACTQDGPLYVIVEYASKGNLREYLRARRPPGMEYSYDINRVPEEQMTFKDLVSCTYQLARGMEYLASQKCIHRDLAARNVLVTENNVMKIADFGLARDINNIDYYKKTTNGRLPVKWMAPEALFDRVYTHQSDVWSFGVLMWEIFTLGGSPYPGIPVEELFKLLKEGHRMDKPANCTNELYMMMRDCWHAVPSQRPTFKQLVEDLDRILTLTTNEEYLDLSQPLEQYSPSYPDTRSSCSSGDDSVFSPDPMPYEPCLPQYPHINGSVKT
How it was run: as §2

[10] = target: T5, FGFR3 (Homo sapiens, UniProt P22607); assay: as above; conditions: read-out: FGFR3 (Kd nM)
T5 construct: made in house; host or cells: E. coli (BL21-derived), T7 phage
T5 sequence (P22607 23-806): as the sequence (P22607 23-806 V555M) above, with M533V counted along it
How it was run: as §2

SMILES | IC50 [1] [nM] | IC50 [2] [nM] | IC50 [3] [nM] | IC50 [4] [nM] | IC50 [5] [nM] | Kd [6] [nM] | Kd [7] [nM] | Kd [8] [nM] | Kd [9] [nM] | Kd [10] [nM]
CC[C@H](C)NC1(C)CN(c2ncc(-c3n[nH]c4ccc(O[C@H](C)c5c(Cl)cncc5Cl)cc34)cc2F)C1 [Example 141, 1-[5-[5-[(1R)-1-(3,5-dichloro-4-pyridyl)ethoxy]-1H-indazol-3-y1]-3-fluoro-2-pyridyl]-3-methyl-N-[(1S)-1-methylpropyl]azetidin-3-amine] | 50 to 200 | 50 to 200 | 0.1 to 50 | 50 to 200 | 0.1 to 50 | 1 to 50 | 1 to 50 | 1 to 50 | 1 to 50 | 1 to 50
C[C@@H](Oc1ccc2[nH]nc(-c3cnc(N4CC(C)(CP(C)(C)=O)C4)c(C#N)c3)c2c1)c1c(Cl)cncc1Cl [Example 6, (R)-5-(5-(1-(3,5-dichloropyridin-4-yl)ethoxy)-1H-indazol-3-yl)-2-(3-((dimethylphosphoryl)methyl)-3-methylazetidin-1-yl)nicotinonitrile] | 50 to 200 | > 1000 | 50 to 200 | 0.1 to 50 | 0.1 to 50 | 50 to 300 | 1 to 50 | 1 to 50 | 1 to 50 | 1 to 50
C[C@@H](Oc1ccc2[nH]nc(-c3cnc(N4CC(C)(CS(C)(=O)=O)C4)c(F)c3)c2c1)c1c(Cl)cncc1Cl [Example 199, (R)-5-(1-(3,5-dichloropyridin-4-yl)ethoxy)-3-(5-fluoro-6-(3-methyl-3-((methyl-sulfonyl)meth-yl)azetidin-1-yl)pyridin-3-yl)-1H-indazole] | 50 to 200 | 50 to 200 | 0.1 to 50 | 0.1 to 50 | 0.1 to 50 | 1 to 50 | 1 to 50 | 1 to 50 | 1 to 50 | 1 to 50
C[C@@H](Oc1ccc2[nH]nc(-c3cnc(N4CC(C)(N(C)C)C4)c(F)c3)c2c1)c1c(Cl)cncc1Cl [Example 81, (R)-1-(5-(5-(1-(3,5-dichloropyridin-4-yl)ethoxy)-1H-indazol-3-yl)-3-fluoropyridin-2-yl)-N,N,3-trimethylazetidin-3-amine] | 50 to 200 | 50 to 200 | 0.1 to 50 | 0.1 to 50 | 0.1 to 50 | 1 to 50 | 1 to 50 | 1 to 50 | 1 to 50 | 1 to 50
CNC1(C)CN(c2ncc(-c3n[nH]c4cc(OC)c(O[C@H](C)c5c(Cl)cncc5Cl)cc34)cc2C#N)C1 [Example 9, 5-[5-[(1R)-1-(3,5-dichloro-4-pyridyl)ethoxy]-6-methoxy-1H-indazol-3-yl]-2-[3-methyl-3-(methylamino)azetidin-1-yl]pyridine-3-carbonitrile] | 50 to 200 | 0.1 to 50 | 0.1 to 50 | 0.1 to 50 | 0.1 to 50 | 1 to 50 | 1 to 50 | 1 to 50 | 1 to 50 | 1 to 50
